What was measured:
[1] = tested on: Calli of Spirodela punctata var. Helgm; experiment: Regeneration of plants from Spirodela calli; assay type: in vivo; details: B-5 medium, 1% sucrose, scored after 2 weeks; for Regenerating calli No.: 30 calli
Description: Spirodela calli were maintained on B-5 medium (Table 6 below) supplemented with 1.0% sucrose, 3 mg/l 2IP and 10 mg/l 2,4-D. For regeneration, calli were transferred to B-5 medium supplemented with 1,0% sucrose and 2 mg/l 2IP. Fully regenerated S. punctata plants were efficiently obtained within 1–2 weeks. Spirodela calli and the regenerated plants, were grown at 26° C. under continuous fluorescent light (30 μE m^−2s^−1).
Calli of Spirodela punctata var. Helgm, maintained for 7 to 16 weeks on B-5 medium supplemented with 1% sucrose, […] 2IP and 10 mg/l 2,4-D, were transferred to B-5 medium supplemented with 1% sucrose and different concentrations of 2IP. Regenerated plants were visually scored after 2 weeks.

[2] = tested on: Spirodela punctata plants; experiment: GUS expression of transformed plants grown on kanamycin or BASTA supplemented SP medium; assay type: in vivo; details: supplement 2 μg/ml in SP medium, 2 to 5 weeks
Description: The method involved wounding plants, co-cultivating them with 5×10^8 bacteria ml^−1 (A. tumefaciens strain EHA105 harboring Ti plasmid pME504) for 30 min. and vacuum infiltration (30 mbar, for 5–10 min). Transformed Spirodela punctata plants were grown in SP medium (Table 2) supplemented with 2 μg/ml kanamycin for 2 to 5 weeks. Six green plants resistant to kanamycin, and a sampling of bleached ones, were assayed for GUS expression.

SMILES | Regenerating calli (%) ([1]; 2 IP 2 mg/l) | Regenerating calli No. ([1]; 2 IP 2 mg/l) | Regenerating calli (%) ([1]; 2 IP 10 mg/l) | Regenerating calli No. ([1]; 2 IP 10 mg/l) | GUS expression (% fronds) Bleached plants ([2]; bleached plants) | GUS expression (% fronds) Green plants ([2]; green resistant plants)
CC(C)=CCNc1ncnc2nc[nH]c12 [2 IP] | 73% | 22 | 0% | 0 | – | –
NC[C@H]1O[C@H](O[C@H]2[C@H](O)[C@@H](O[C@H]3O[C@H](CO)[C@@H](O)[C@H](N)[C@H]3O)[C@H](N)C[C@@H]2N)[C@H](O)[C@@H](O)[C@@H]1O [Kanamycin] | – | – | – | – | 0 % fronds | 83 % fronds

Reference: patent publication US7176352B1, “Transgenic Lemnaceae” (Yeda Research and Development Company Ltd., priority 1997, dated 2007)
